{"source": "paper PMC7503219", "about": "(International journal of hematology, 2019)", "origin": "cited, not measured here", "test_system": "GATA-1low mice", "conditions": "GATA-1 mouse model of PMF", "data": [{"compound": "N#CCCN", "note": "[BAPN, β-aminopropionitrile]", "values": [{"measurement": "effect on myelofibrotic phenotype", "result": "reduced the pathogenesis of the myelofibrotic phenotype"}]}]}
